Data taken from US5075287A, “Muramyl peptide derivatives and immunoregulating compositions containing them” (priority 1989, dated 1991).
Like-named read-outs stand apart in the source and are kept apart here.

What was measured:
[1] = test system: influenza HA vaccine (B/Nagasaki/1/87 strain); type: in vivo, female CDF1 mice; details: Experiment 1, 5000-fold dilution
[2] = test system: hepatitis B virus surface antigen (HBs); assay: Hepatitis-vaccine enhancing activity (adjuvant activity): anti-HBs IgG in mouse serum by ELISA; type: in vivo, female CDF1 mice; details: Experiment 1, 5000-fold dilution
Experimental: A compound of the present invention was dissolved in lipidmicrosphere (1 mg/ml). On the other hand, a solution of hepatitis B virus surface antigen (HBs) in physiological saline was prepared (50 μg/ml). The above solutions in equal amounts were mixed to prepare a test solution. A control solution was prepared by the exclusion of the compound of the present invention from said test solution. A mixture of a suspension of aluminium hydroxide gel in physiological saline (1 mg/ml) and said hepatitis vaccine preparation in equal amounts was prepared as another control solution. The test solution (0.2 ml) was intraperitoneally administered to each mouse in one group consisting of seven female CDF1 mice.
Blood samples were collected from the fundus ocluli vein of each mouse every week after the administration and then centrifuged to obtain serums. Three weeks after the administration, 0.2 ml of the test liquid was intraperitoneally administered again to each mouse for secondary stimulation. Then blood collecting was conducted every week to obtain serums after the application of the secondary stimulation, in the same manner as that described above.
The amount of the IgG antibodies against the hepatitis B virus surface antigens (HBs) in the serums thus obtained was determined with an ELISA method.

[3] = test system: L-1210 mouse leukemia cells; assay: Activation of macrophages (growth inhibition of tumor cells by intraperitoneal macrophages of treated mice, MTT assay); type: cell-based; details: macrophages taken 3 days after i.p. 0.2 ml of 500 μg/ml, macrophage:L-1210 20:1, 72 hours
Experimental: A compound of the present invention was dissolved in lipidmicrosphere to obtain a solution in a concentration of 500μg/ml, and 0.2 ml of such solution was intraperitoneally administered to each mouse in one group consisting of seven female CDF1 mice. Intraperitoneal macrophages obtained three days after the administration and L-1210 mouse leukemia cells were mixed in the ratio of cell numbers of 20:1, respectively. Two hundred μl of the mixture was placed in each well of one sheet of 96 well microtiter plate. After 72 hours, the increase of the cell number in each well was determined by a MTT assay method. The ratio of the cell number for the mixture of the L-1210 cells and the macrophage relative to the cell number for the L-1210 cells only(growth inhibitory ratio) was determined, and the results are shown in Table 3.

[4] = 1 W after i.p. administration, compound in lipidmicrosphere + HA vaccine
[5] = 4 W (after secondary stimulation at 3 weeks)
[6] = 5 W (after secondary stimulation at 3 weeks)
[7] = 1 W after i.p. administration, compound in lipidmicrosphere + HBs

SMILES	Anti HA serum antigen value (average value ± S.D.) [1, 4] [O.D 415 nm]	Anti HA serum antigen value (average value ± S.D.) ([1]; 2 W) [O.D 415 nm]	Anti HA serum antigen value (average value ± S.D.) ([1]; 3 W) [O.D 415 nm]	Anti HA serum antigen value (average value ± S.D.) [1, 5] [O.D 415 nm]	Anti HA serum antigen value (average value ± S.D.) [1, 6] [O.D 415 nm]	Anti-HBs IgG antibody level in serum (ELISA absorbance at 415 nm) [2, 7] [O.D 415 nm]	Anti-HBs IgG antibody level in serum (ELISA absorbance at 415 nm) ([2]; 2 W) [O.D 415 nm]	Anti-HBs IgG antibody level in serum (ELISA absorbance at 415 nm) ([2]; 3 W) [O.D 415 nm]	Anti-HBs IgG antibody level in serum (ELISA absorbance at 415 nm) [2, 5] [O.D 415 nm]	Anti-HBs IgG antibody level in serum (ELISA absorbance at 415 nm) [2, 6] [O.D 415 nm]	Growth inhibitory ratio of L-1210 mouse leukemia cells [3] [%]
CCCCCCCCCCCCCC(=O)O[C@H](CCCCCCCCCCC)CC(=O)S[C@@H]1O[C@H](CO)[C@@H](O)[C@H](O[C@H](C)C(=O)N[C@@H](C)C(=O)N[C@H](CCC(=O)OC)C(N)=O)[C@H]1NC(C)=O [Example 4, N-[2-0-{2-Acetamido-2,3-dideoxy-1-S-[[3R)-3-tetradecanoyloxytetradecanoyl)-1-thio-β-D-glucopyranos-3-yl}-D-lactoyl]-L-alanyl-D-isoglutamine methylester]	0.004 ± 0.001	0.215 ± 0.001	0.381 ± 0.004	1.204 ± 0.012	1.150 ± 0.016	0	0.073 ± 0.001	0.111 ± 0.007	0.848 ± 0.009	0.935 ± 0.022	45.2
CCCCCCCCCCCCCCCCCC(=O)OC[C@H]1O[C@@H](SC(=O)C(CCCCCCCCCCCCCC)CCCCCCCCCCCCCC)[C@H](NC(C)=O)[C@@H](O[C@H](C)C(=O)N[C@@H](C)C(=O)N[C@H](CCC(=O)OC)C(N)=O)[C@@H]1O [Example 10, N-[2-0-{2-Acetamido-2,3-dideoxy-6-0-octadecanoyl-1-S-(2-tetradecylhexadecanoyl)-1-thio-β-D-glucopyranos-3-yl}-D-lactoyl]-L-alanyl-D-isoglutamine methylester]	0.005 ± 0.001	0.153 ± 0.003	0.280 ± 0.000	1.149 ± 0.018	1.203 ± 0.014	0	0.061 ± 0.002	0.114 ± 0.003	0.778 ± 0.024	0.878 ± 0.009	76.6
CCCCCCCCCCCCCC(=O)OC[C@H]1O[C@@H](SC(=O)C[C@@H](CCCCCCCCCCC)OC(=O)CCCCCCCCCCCCC)[C@H](NC(C)=O)[C@@H](O[C@H](C)C(=O)N[C@@H](C)C(=O)N[C@H](CCC(=O)OC)C(N)=O)[C@@H]1O [Example 15]	0.007 ± 0.000	0.119 ± 0.005	0.218 ± 0.006	1.249 ± 0.013	1.262 ± 0.017	0	0.085 ± 0.002	0.129 ± 0.001	0.788 ± 0.008	0.905 ± 0.020	87.5
